Experimental data as given in ChEMBL document CHEMBL1201862, “PubChem BioAssay data set” (2004).
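Following 48 hours of exposure in 96-well plates, responses at five concentrations were used to interpolate endpoints linearly. At the GI50, growth is halved.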 The source made the active and inactive calls. No stated cut-off is given here; in the data, active = GI50 up to about 1.1 µM and inactive = higher.

Tests used:
Experiment in all cases: growth of human tumour cells (NCI), 48 h
ACHN = test system: ACHN
HCT-116 = test system: HCT-116
HL-60 = test system: HL-60
IGROV-1 = test system: IGROV-1
K562 = test system: K562
KM12 = test system: KM12
LOX IMVI = test system: LOX IMVI
M14 = test system: M14
MOLT-4 = test system: MOLT-4
NCI-H23 = test system: NCI-H23
NCI-H460 = test system: NCI-H460
OVCAR-4 = test system: OVCAR-4
OVCAR-5 = test system: OVCAR-5
OVCAR-8 = test system: OVCAR-8
SK-MEL-28 = test system: SK-MEL-28
SK-MEL-2 = test system: SK-MEL-2
SK-MEL-5 = test system: SK-MEL-5
SR = test system: SR
SW-620 = test system: SW-620
UACC-257 = test system: UACC-257

SMILES | GI50 (ACHN) | GI50 (HCT-116) | GI50 (HL-60) | GI50 (IGROV-1) | GI50 (K562) | GI50 (KM12) | GI50 (LOX IMVI) | GI50 (M14) | GI50 (MOLT-4) | GI50 (NCI-H23) | GI50 (NCI-H460) | GI50 (OVCAR-4) | GI50 (OVCAR-5) | GI50 (OVCAR-8) | GI50 (SK-MEL-28) | GI50 (SK-MEL-2) | GI50 (SK-MEL-5) | GI50 (SR) | GI50 (SW-620) | GI50 (UACC-257)
CCOC(=O)N1CCN(Cc2cc(=O)n3ccc(C)cc3n2)CC1 | > 100 µM (inactive) | > 100 µM (inactive) | > 100 µM (inactive) | > 100 µM (inactive) | > 100 µM (inactive) | > 100 µM (inactive) | > 100 µM (inactive) | > 100 µM (inactive) | > 100 µM (inactive) | > 100 µM (inactive) | > 100 µM (inactive) | > 100 µM (inactive) | > 100 µM (inactive) | > 100 µM (inactive) | > 100 µM (inactive) | > 100 µM (inactive) | > 100 µM (inactive) | > 100 µM (inactive) | > 100 µM (inactive) | > 100 µM (inactive)
Cc1cc(NS(=O)(=O)c2ccc(Nc3c4ccccc4nc4c(C(=O)N5CCN(CCO)CC5)cccc34)cc2)no1 | > 100 µM (inactive) | > 100 µM (inactive) | 47.6 µM (inactive) | > 100 µM (inactive) | 57.8 µM (inactive) | > 100 µM (inactive) | 39.5 µM (inactive) | > 100 µM (inactive) | 83.2 µM (inactive) | > 100 µM (inactive) | > 100 µM (inactive) | > 100 µM (inactive) | > 100 µM (inactive) | > 100 µM (inactive) | > 100 µM (inactive) | > 100 µM (inactive) | > 100 µM (inactive) | 66.5 µM (inactive) | > 100 µM (inactive) | > 100 µM (inactive)
O=C(O)c1cccc(/N=N/c2c(S(=O)(=O)O)ccc3c2C(=O)c2ccccc2C3=O)c1O | > 100 µM (inactive) | > 100 µM (inactive) | > 100 µM (inactive) | > 100 µM (inactive) | > 100 µM (inactive) | > 100 µM (inactive) | > 100 µM (inactive) | > 100 µM (inactive) | > 100 µM (inactive) | > 100 µM (inactive) | > 100 µM (inactive) | > 100 µM (inactive) | > 100 µM (inactive) | > 100 µM (inactive) | > 100 µM (inactive) | > 100 µM (inactive) | > 100 µM (inactive) | > 100 µM (inactive) | > 100 µM (inactive) | > 100 µM (inactive)
CCN(CC)CCOc1ccc(/C=C(\C#N)c2ccc(OCCN(CC)CC)cc2)cc1 | 27.3 µM (inactive) | 5.87 µM (inactive) | 4.84 µM (inactive) | 22.7 µM (inactive) | 3.37 µM (inactive) | 10.7 µM (inactive) | 12.6 µM (inactive) | 7.64 µM (inactive) | 9.12 µM (inactive) | 17.3 µM (inactive) | 18.1 µM (inactive) | 37.3 µM (inactive) | 11.6 µM (inactive) | 20.5 µM (inactive) | 16.5 µM (inactive) | 21.4 µM (inactive) | 4.48 µM (inactive) | 7.89 µM (inactive) | 15.3 µM (inactive) | 16.9 µM (inactive)
Cc1cc(-c2ccccc2)nc(Nc2nc3ccccc3o2)n1 | > 100 µM (inactive) | > 100 µM (inactive) | > 100 µM (inactive) | > 100 µM (inactive) | > 100 µM (inactive) | > 100 µM (inactive) | > 100 µM (inactive) | > 100 µM (inactive) | > 100 µM (inactive) | > 100 µM (inactive) | > 100 µM (inactive) | > 100 µM (inactive) | > 100 µM (inactive) | > 100 µM (inactive) | > 100 µM (inactive) | > 100 µM (inactive) | > 100 µM (inactive) | > 100 µM (inactive) | > 100 µM (inactive) | > 100 µM (inactive)
CS(=O)(=O)c1nc(N)nc2nc[nH]c12 | > 100 µM (inactive) | > 100 µM (inactive) | > 100 µM (inactive) | > 100 µM (inactive) | > 100 µM (inactive) | > 100 µM (inactive) | > 100 µM (inactive) | > 100 µM (inactive) | > 100 µM (inactive) | > 100 µM (inactive) | > 100 µM (inactive) | > 100 µM (inactive) | > 100 µM (inactive) | > 100 µM (inactive) | > 100 µM (inactive) | > 100 µM (inactive) | > 100 µM (inactive) | > 100 µM (inactive) | > 100 µM (inactive) | > 100 µM (inactive)
CCCCCCCCCCCC/C=C\CC[C@@H](O)[C@H](O)CC[C@H](O)[C@@H]1CC[C@@H](CCCCCCCC2=C[C@H](C)OC2=O)O1 [GIGANTRIONENIN] | 1.17 µM (inactive) | 1.87 µM (inactive) | 2.17 µM (inactive) | 3.18 µM (inactive) | 1.15 µM (inactive) | 3.92 µM (inactive) | 1.31 µM (inactive) | 13.9 µM (inactive) | 2.17 µM (inactive) | 0.11 µM (active) | 2.91 µM (inactive) | 10.8 µM (inactive) | 18.5 µM (inactive) | 2.64 µM (inactive) | 2.94 µM (inactive) | 2.24 µM (inactive) | 1.26 µM (inactive) | 1.41 µM (inactive) | 3.35 µM (inactive) | 0.0546 µM (active)
